Test [1] deals with IDH1-R132C recombinant protein (Homo sapiens, UniProt O75874, R132C). Briefly: IDH1-R132C enzymatic assay (NADPH consumption, diaphorase/resazurin readout). Type of test: biochemical. As to conditions: read-out: Enzyme IDH1 R132C Range. The protocol:
(§1) Assays were performed in a 384-well black plate. […] After the plate was centrifuged briefly, an aliquot of 10 μL of 2 mM α-ketoglutarate and 20 μM NADPH solution prepared in assay buffer was then added to each well and the reaction was maintained at 25° C. for 45 minutes. An aliquot of 10 μL of diaphorase solution (0.15 U/mL diaphorase and 30 μM Resazurin in assay buffer) was added to each well. […] The IC50 of a given compound was calculated by fitting the dose response curve of inhibition of NADPH consumption at a given concentration with the four parameter logistic equation.

Test [2] concerns HCT116 isogenic IDH1-R132C mutant cells. Briefly: Cellular 2-HG assay using HCT116 mutant IDH1 cells (R132C). Type of test: cell-based. As to conditions: Homo sapiens, HCT-116; cellular 2-HG inhibition, 24 hours, RapidFire mass spectrometry; read-out: HCT116 IDH1 R132C Range. As to the method:
(§2) HCT116 isogenic IDH1-R132H and IDH1-R132C mutant cells were cultured in growth media (McCoy's 5A, 10% fetal bovine serum, 1× antibiotic-antimycotic solution and 0.3 mg/mL G418) in 5% CO2 in an incubator at 37° C. To prepare the assay, cells were trypsinized and resuspended in assay media (McCoy's 5A with no L-glutamine, 10% fetal bovine serum, 1× antibiotic-antimycotic solution and 0.3 mg/mL G418). An aliquot of 10,000 cells/100 μL was transferred to each well of a clear 96-well tissue culture plate. The cells were incubated in 5% CO2 at 37° C. in an incubator overnight to allow for proper cell attachment. An aliquot of 50 μL of compound containing assay media were then added to each well and the assay plate was kept in 5% CO2 at 37° C. in an incubator for 24 hours. The media was then removed from each well and 150 μL of a methanol/water mixture (80/20 v/v) was added to each well. The plates were kept at −80° C. freezer overnight to allow for complete cell lysis. An aliquot of 125 μL of extracted supernatant was analyzed by RapidFire high-throughout-mass spectrometry (Agilent) to determine the cellular 2-HG level. The IC50 of a given compound was calculated by fitting the dose response curve of cellular 2-HG inhibition at a given concentration with the four parameter logistic equation

Test [3] has as its system HCT116 isogenic IDH1-R132H mutant cells. Briefly: Cellular 2-HG assay using HCT116 mutant IDH1 cells (R132H). As to conditions: Homo sapiens, HCT-116; cellular 2-HG inhibition, 24 hours, RapidFire mass spectrometry; read-out: HCT116 IDH1 R132H Range. Type of test: cell-based. As to the method: as §2
Test [4] has as its target IDH1-R132H recombinant protein (Homo sapiens, UniProt O75874, R132H). Briefly: IDH1-R132H enzymatic assay (NADPH consumption, diaphorase/resazurin readout). Type of test: biochemical. As to conditions: read-out: Enzyme IDH1 R132H Range. As to the method: as §1
Background: Resazurin is reduced to fluorescent resorufin, in cell work by metabolically active cells.

SMILES strings stand for the structures.

Chain of IDH1-R132H recombinant protein (O75874 whole entry R132H): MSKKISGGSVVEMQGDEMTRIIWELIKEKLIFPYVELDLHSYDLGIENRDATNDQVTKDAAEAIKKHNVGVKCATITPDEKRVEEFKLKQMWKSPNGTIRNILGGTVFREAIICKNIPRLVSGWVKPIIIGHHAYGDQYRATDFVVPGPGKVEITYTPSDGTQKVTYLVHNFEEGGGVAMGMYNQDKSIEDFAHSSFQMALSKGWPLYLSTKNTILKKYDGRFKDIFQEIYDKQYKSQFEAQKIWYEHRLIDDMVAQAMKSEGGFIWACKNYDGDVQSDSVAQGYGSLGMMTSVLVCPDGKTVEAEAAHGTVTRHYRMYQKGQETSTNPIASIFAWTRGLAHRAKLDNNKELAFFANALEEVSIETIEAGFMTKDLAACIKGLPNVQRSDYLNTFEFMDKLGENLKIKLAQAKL
Chain of IDH1-R132C recombinant protein (O75874 whole entry R132C): as the sequence (O75874 whole entry R132H) above, with H132C counted along it

Consider `CC(Nc1ccc(C#N)n(C)c1=O)c1cc2cc(Cl)c(F)cc2[nH]c1=O` (centres unmarked) [Compound I-19, 5-{[1-(6-chloro-7-fluoro-2-oxo-1,2-dihydroquinolin-3-yl)ethyl]amino}-1-methyl-6-oxo-1,6-dihydropyridine-2-carbonitrile], for which the IC50 in test [1] lay in the range of 100 to 1000 nM; in test [2], 10 to 100 nM; in test [3], 10 to 100 nM; in test [4], 10 to 100 nM.

Take `C[C@H](Nc1ccc(C#N)n(C)c1=O)c1cc2cc(Cl)cc(F)c2[nH]c1=O` [Compound I-30, 5-{[(1S)-1-(6-chloro-8-fluoro-2-oxo-1,2-dihydroquinolin-3-yl)ethyl]amino}-1-methyl-6-oxo-1,6-dihydropyridine-2-carbonitrile]: the IC50 in test [1] fell in the range of 100 to 1000 nM; in test [2] it was 100 to 1000 nM; in test [3], 10 to 100 nM; in test [4] it was 10 to 100 nM.

Turning to `C[C@H](Nc1ccc(C#N)n(C)c1=O)c1cc2cc(Cl)cnc2[nH]c1=O` [Compound I-31, 5-{[(1S)-1-(6-chloro-2-oxo-1,2-dihydro-1,8-naphthyridin-3-yl)ethyl]amino}-1-methyl-6-oxo-1,6-dihydropyridine-2-carbonitrile], the IC50 is 1000 to 10000 nM in test [1], over 1000 nM in test [2], 10 to 100 nM in test [3] and 100 to 1000 nM in test [4].

Turning to `C[C@@H](Nc1ccc(C#N)n(C)c1=O)c1nc2cc(Cl)ccc2[nH]c1=O` [Compound I-32, 5-{[(1R)-1-(7-chloro-3-oxo-3,4-dihydroquinoxalin-2-yl)ethyl]amino}-1-methyl-6-oxo-1,6-dihydropyridine-2-carbonitrile], the IC50 is 1000 to 10000 nM in test [1], over 1000 nM in test [2], over 1000 nM in test [3] and 100 to 1000 nM in test [4].

As to `C[C@H](Nc1ccc(C#N)n(C)c1=O)c1nc2cc(Cl)ccc2[nH]c1=O` [Compound I-33, 5-{[(1S)-1-(7-chloro-3-oxo-3,4-dihydroquinoxalin-2-yl)ethyl]amino}-1-methyl-6-oxo-1,6-dihydropyridine-2-carbonitrile], the IC50 in test [1] was 1000 to 10000 nM; in test [2] it was over 1000 nM; in test [3], 100 to 1000 nM; in test [4], 100 to 1000 nM.
